According to ChEMBL document CHEMBL1125162, “High-potency dipeptide sweeteners. 2. L-aspartylfuryl-, thienyl-, and imidazolylglycine esters” (J Med Chem, 1990):

Assay: Sweetness potency compared to 5-10% sucrose
Format: functional

SMILES	Potency
COC(=O)C(NC(=O)[C@@H](N)CC(=O)O)C(=O)O[C@@H]1C(C)(C)C2CC[C@]1(C)C2 (stereo in doubt; 2)	30000
CC12CCC(C1)C(C)(C)C2OC(=O)C(NC(=O)[C@@H](N)CC(=O)O)c1ccsc1 (some centres not stated)	2300
CC12CCC(C1)C(C)(C)C2OC(=O)C(Cc1cccs1)NC(=O)[C@@H](N)CC(=O)O (some centres not stated)	0
CC12CCC(C1)C(C)(C)C2OC(=O)C(NC(=O)[C@@H](N)CC(=O)O)C1CCCO1 (some centres not stated)	0
CC1(C)C2CC[C@](C)(C2)[C@@H]1OC(=O)C(NC(=O)[C@@H](N)CC(=O)O)c1ccccc1 (stereo in doubt; 5)	3700
CC12CCC(C1)C(C)(C)[C@@H]2OC(=O)C(NC(=O)[C@@H](N)CC(=O)O)c1ccco1 (some centres not stated)	630
CC1(C)C2CC[C@](C)(C2)[C@@H]1OC(=O)C(NC(=O)[C@@H](N)CC(=O)O)c1ccccc1 (stereo in doubt; 4)	1200
CC12CCC(C1)C(C)(C)C2OC(=O)C(NC(=O)[C@@H](N)CC(=O)O)c1cccs1 (some centres not stated)	2000
CC12CCC(C1)C(C)(C)C2OC(=O)C(NC(=O)[C@@H](N)CC(=O)O)c1c[nH]cn1 (some centres not stated)	350
COC(=O)C(NC(=O)[C@@H](N)CC(=O)O)C(=O)O[C@@H]1C(C)(C)C2CC[C@]1(C)C2 (stereo in doubt; 3)	50000
CC1CCC(C)C1OC(=O)C(NC(=O)[C@@H](N)CC(=O)O)c1ccco1 (some centres not stated)	400
CC12CCC(C1)C(C)(C)[C@H]2OC(=O)[C@H](NC(=O)[C@@H](N)CC(=O)O)c1ccco1 (some centres not stated)	16500
